Data published in patent US8450525B2, “Histone deacetylase inhibitors” (Orchid Chemicals & Pharmaceuticals Limited, priority 2007, dated 2013).

Columns and labels:
[1] = system: T1, HDAC (Mouse Liver Extract); assay: HDAC inhibition assay using Boc-Lys(Ac)-AMC substrate, mouse liver enzyme; format: biochemical;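 as to IC50: IC50 for inhibition of HDAC activity in mouse liver extract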
T1 construct: Mouse liver enzyme (10 mg/ml) was diluted 1:6 with HDAC buffer

NCI-H460 (lung) cells = assay: Anti-cancer screen, growth inhibition (MTT); format: cell-based; conditions: Homo sapiens, 48 hours of incubation
Procedure, shortened: (§1)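 MTT added for 3 h at 37° C, formazan dissolved in DMSO and A570 read. A T0 plate was measured at compound addition.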

U251 (glioma) cells = assay: Anti-cancer screen, growth inhibition (MTT); format: cell-based; conditions: Homo sapiens, U-251 cells, 48 hours of incubation
Procedure, shortened: as §1

HCT 116 (colon) cells = assay: Anti-cancer screen, growth inhibition (MTT); format: cell-based; conditions: Homo sapiens, HCT-116 cells, 48 hours of incubation
Procedure, shortened: as §1

Structure (SMILES) | HDAC Inhibition % (1 μM) [1] | HDAC Inhibition % (10 μM) [1] | GI50 (NCI-H460 (lung) cells) | GI50 (U251 (glioma) cells) | GI50 (HCT 116 (colon) cells) | IC50 [1]
Nc1ccccc1NC(=O)c1ccc(/C=C(/C(=O)NC2CC2)c2ccc3ccccc3c2)cc1 [Example 121, N-(2-Aminophenyl)-4-(3-(cyclopropylamino)-2-(2-naphthyl)-3-oxoprop-1-en-1-yl)benzamide] | 35.0% | 63.5% | 3.1 µM | 9 µM | 1.7 µM | 
COc1ccc(/C(=C\c2ccc(C(=O)Nc3ccccc3N)cc2)C(=O)Nc2ccccc2)c(OC)c1 [Example 122, N-(2-Aminophenyl)-4-(3-phenylamino-2-(2,4-dimethoxyphenyl)-3-oxoprop-1-en-1-yl)benzamide] | 28.9% | 54.1% | 11 µM | 50 µM | 2.6 µM | 
Nc1ccccc1NC(=O)c1ccc(/C=C(/C(=O)NC2CC2)c2c[nH]c3ccccc23)cc1 [Example 124, N-(2-Aminophenyl)-4-(3-(cyclopropylamino)-3-oxo-2-(1H-indol-3-yl)prop-1-en-1-yl)benzamide] | 34.7% | 63.2% | 4.5 µM | 2.6 µM | 2 µM | 
Nc1ccccc1NC(=O)c1ccc(/C=C(/C(=O)NC2CC2)c2ccc(-c3ccccc3)cc2)cc1 [Example 125, N-(2-Aminophenyl)-4-(3-(cyclopropylamino)-3-oxo-2-biphenyl-4-yl-prop-1-en-1-yl)benzamide] | 31.5% | 45.4% | 35 µM | 20 µM | 3.6 µM | 
O=C(NC1CC1)C(=Cc1ccc(C(=O)Nc2ccccc2O)cc1)c1ccc(F)cc1 [Example 126, 4-(2-(4-Fluorophenyl)-3-(cyclopropylamino)-3-oxoprop-1-en-1-yl)-N-(2-hydroxyphenyl)benzamide] | 36.9% | 53.9% | 40 µM | 22 µM | 14 µM | 
Nc1ccccc1NC(=O)c1ccc(/C=C(/C(=O)NC2CC2)c2cccnc2)cc1 [Example 127, N-(2-Aminophenyl)-4-[3-(cyclopropylamino)-3-oxo-2-pyridin-3-yl-prop-1-en-1-yl]benzamide] | 36.9% | 55.4% | 12 µM | 40 µM | 22 µM | 
Nc1ccccc1NC(=O)c1ccc(/C=C(/C(=O)NC2CC2)c2ccc(O)cc2)cc1 [Example 128, N-(2-Aminophenyl)-4-(2-(4-hydroxyphenyl)-3-(cyclopropylamino)-3-oxoprop-1-en-1-yl)benzamide] | 31.8% | 55.1% | 26 µM | 28 µM | 24 µM | 
Nc1ccccc1NC(=O)c1ccc(/C=C(/C(=O)NC2CC2)c2c(F)cccc2F)cc1 [Example 129, N-(2-Aminophenyl)-4-(2-(2,6-difluorophenyl)-3-(cyclopropylamino)-3-oxoprop-1-en-1-yl)benzamide] | 30.0% | 54.6% | 12 µM | 22 µM | 3.5 µM | 
Nc1ccccc1NC(=O)c1ccc(/C=C(/C(=O)NC2CC2)c2cc(F)ccc2F)cc1 [Example 130, N-(2-Aminophenyl)-4-(2-(2,5-difluorophenyl)-3-(cyclopropylamino)-3-oxoprop-1-en-1-yl)benzamide] | 34.7% | 56.0% | 9 µM | 16 µM | 5.8 µM | 
CC(C)NC(=O)/C(=C/c1ccc(C(=O)Nc2ccccc2N)cc1)c1ccc(F)cc1 [Example 131, N-(2-Aminophenyl)-4-(2-(4-fluorophenyl)-3-(isopropylamino)-3-oxoprop-1-en-1-yl)benzamide] | 28.6% | 57.4% | 18 µM | 19 µM | 4 µM | 
Nc1ccc(-c2ccccc2)cc1NC(=O)c1ccc(/C=C(/C(=O)NC2CC2)c2ccc(F)cc2)cc1 [Example 132] | 23.5% | 25.3% | > 100 µM | > 100 µM | > 100 µM | 
Cc1ccccc1/C(=C\c1ccc(C(=O)Nc2ccccc2N)cc1)C(=O)NC1CC1 [Example 133, N-(2-Aminophenyl)-4-(3-(cyclopropylamino)-2-(2-methylphenyl)-3-oxoprop-1-en-1-yl)benzamide] | 39.6% | 56.7% | 6.6 µM | 12 µM | 2.8 µM | 
CNC(=O)/C(=C/c1ccc(C(=O)Nc2ccccc2N)cc1)c1ccc(F)cc1 [Example 134, N-(2-Aminophenyl)-4-(3-(methylamino)-2-(4-fluorophenyl)-3-oxoprop-1-en-1-yl)benzamide] | 38.2% | 63.3% | 12 µM | 7.5 µM | 6 µM | 
Nc1ccccc1NC(=O)c1ccc(/C=C(\C(=O)NC2CC2)c2ccc(F)cc2)cc1 [Example 135, (Z)—N-(2-Aminophenyl)-4-(2-(4-fluorophenyl)-3-(cyclopropylamino)-3-oxoprop-1-en-1-yl)benzamide] | 8.6% | 16.6% | 76 µM | 9.8 µM | 6.8 µM | 
Nc1ccccc1NC(=O)c1ccc(/C=C(/C(=O)N2CCOCC2)c2ccc(F)cc2)cc1 [Example 136, N-(2-Aminophenyl)-4-[2-(4-fluorophenyl)-3-morpholin-4-yl-3-oxoprop-1-en-1-yl]benzamide] | 36.1% | 67.9% | 80 µM | 21 µM | 40 µM | 
Nc1ccccc1NC(=O)c1ccc(/C=C(/CNC2CC2)c2ccc(F)cc2)cc1 [Example 144, N-(2-Aminophenyl)-4-(3-(cyclopropylamino)-2-(4-fluorophenyl)prop-1-en-1-yl)benzamide] | 36.3% | 62.3% | 10 µM | 8 µM | 5.5 µM | 
O=C(/C=C/c1ccc(CNC(=O)c2ccc(/C=C(/C(=O)NC3CC3)c3ccc4c(c3)OCO4)cc2)cc1)NO [Example 147, 4-(3-(Cyclopropylamino)-2-[benzodioxol-5-yl]-3-oxoprop-1-en-1-yl)-N-(4-((E)-3-(hydroxyamino)-3-oxoprop-1-en-1-yl)benzyl)benzamide] | 94.6% | 100.0% | 95 µM | 19 µM | 20 µM | 
Cc1ccc(/C(=C\c2ccc(C(=O)NCc3ccc(C(=O)NO)cc3)cc2)C(=O)NC2CC2)cc1 [Example 148, 4-(3-(Cyclopropylamino)-2-(4-methylphenyl)-3-oxoprop-1-en-1-yl)-N-(4-(hydroxycarbamoyl)benzyl)benzamide] | 86.9% | 97.8% | 0.1 µM | 0.08 µM | 2 µM | 0.022 µM
O=C(NC1CC1)/C(=C/c1ccc(C(=O)NCc2ccc(C(=O)NO)cc2)cc1)c1ccccc1 [Example 149, 4-(3-(Cyclopropylamino)-2-phenyl-3-oxoprop-1-en-1-yl)-N-(4-(hydroxycarbamoyl)benzyl)benzamide] | 61.7% | 88.0% | 52 µM | 12 µM | 12 µM | 
O=C(NC1CC1)/C(=C/c1ccc(C(=O)NCc2ccc(C(=O)NO)cc2)cc1)c1ccc(F)cc1 [Example 152, 4-(3-(Cyclopropylamino)-2-(4-fluorophenyl)-3-oxoprop-1-en-1-yl)-N-(4-(hydroxycarbamoyl)benzyl)benzamide] | 88.7% | 98.0% | 25 µM | 22 µM | 30 µM | 
O=C(NC1CC1)/C(=C/c1ccc(C(=O)NCc2ccc(C(=O)NO)cc2)cc1)c1cccc(Cl)c1 [Example 153, 4-(3-(Cyclopropylamino)-2-(3-chlorophenyl)-3-oxoprop-1-en-1-yl)-N-(4-(hydroxycarbamoyl)benzyl)benzamide] | 87.5% | 97.1% | 19 µM | 21 µM | 10.2 µM | 
COc1ccc(/C(=C\c2ccc(C(=O)NCc3ccc(C(=O)NO)cc3)cc2)C(=O)NC2CC2)cc1 [Example 154, 4-(3-(Cyclopropylamino)-2-(4-methoxyphenyl)-3-oxoprop-1-en-1-yl)-N-(4-(hydroxycarbamoyl)benzyl)benzamide] | 87.2% | 97.5% | 33 µM | 20 µM | 27 µM | 
O=C(NC1CC1)/C(=C/c1ccc(C(=O)NCc2ccc(C(=O)NO)cc2)cc1)c1ccc(F)cc1Cl [Example 155, 4-(3-(Cyclopropylamino)-2-(2-chloro-4-fluorophenyl)-3-oxoprop-1-en-1-yl)-N-(4-(hydroxycarbamoyl)benzyl)benzamide] | 88.8% | 99.3% | 16 µM | 26 µM | 30 µM | 
O=C(NC1CC1)/C(=C/c1ccc(C(=O)NCc2ccc(C(=O)NO)cc2)cc1)c1cccc(F)c1 [Example 156, 4-(3-(Cyclopropylamino)-2-(3-fluorophenyl)-3-oxoprop-1-en-1-yl)-N-(4-(hydroxycarbamoyl)benzyl)benzamide] | 88.4% | 98.1% | 26 µM | 26 µM | 26 µM | 
